System: db/db mice
Test: Oral postprandial glycemia in db/db mice (experimental model of type II diabetes)
Type: in vivo
Conditions: 100 mg/kg p.o., db/db mice fasted 20 h then fed, compared to vehicle group; for decrease in blood glucose level: 4 hrs after administration; for decrease in insulin level: serum insulin (ELISA) 4 hrs after administration
Experimental: In Vivo Assay: Experimental Model of Type II Diabetes (Oral Postprandial Glycemia in db/db Mice)
The following assay aims at determining the anti-diabetic effect of the test compounds of formula (I) in a model of postprandial glycemia in db/db mice, in vivo.
The assay was performed as follows:
A total of 18 db/db mice (about 8-9 weeks; obtained from IFFACREDO, l'Arbreste, France) were fasted during 20 hours.
3 groups, each consisting of 6 animals were formed: • Group 1: The animals were administered (per os) a dose of […] of vehicle. • Group 2: The animals were administered (per os) a dose of 50 mg/kg of the test compound according to formula (I). • Group 3: The animals were administered (per os) a dose of 100 mg/kg of the test compound according to formula (I).
After oral administration of the compounds of formula (I) solubilized or suspended in CarboxyMethylCellulose (0.5%), Tween 20 (0.25%) and water as vehicle, the animals had access to commercial food (D04, UAR, Villemoisson/Orge, France) ad libitum. The diabetic state of the mice was verified by determining the blood glucose level before drug administration. Blood glucose and serum insulin levels were then determined 4 hrs after drug administration.
The determination of the blood glucose level was performed using a glucometer (Precision Q.I.D., Medisense, Abbot, ref. 212.62.31).
The determination of the Insulin level was performed using an ELISA kit (Crystal CHEM, Ref. INSK R020).
Changes in blood glucose and serum insulin of drug treated mice were expressed as a percentage of control (group 1: vehicle treated mice).

Row | SMILES | decrease in blood glucose level [%] | decrease in insulin level [%]
1 | N#CC(c1ccnc(NCCc2cccnc2)n1)c1nc2ccccc2s1 (stereo not shown) [1,3-benzothiazol-2-yl(2-{[2-(3-pyridinyl)ethyl]amino}-4-pyrimidinyl)acetonitrile] | 38 | 64
2 | N#CC(c1ccnc(OCc2ccc(CN3CCOCC3)cc2)n1)c1nc2ccccc2s1 (stereo not shown) [1,3-benzothiazol-2-yl(2-{[4-(morpholin-4-ylmethyl)benzyl]oxy}-pyrimidin-4-yl)acetonitrile] | 22 | 36
